Reference: ChEMBL document CHEMBL1201862, “PubChem BioAssay data set” (2004)
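Growth conditions: 96-well plates. Treatment: test compound, 48 hours, 5 concentrations. Analysis: linear interpolation between bracketing concentrations; unreached endpoints set to highest concentration. The concentration for 50% growth inhibition is given as GI50.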 The source made the active and inactive calls. Rule as the data show it: active = GI50 up to about 1.1 µM and inactive = higher.

Experiments:
Assay in all cases: growth of human tumour cells (NCI), 48 h
HCC 2998 = test system: HCC 2998
CAKI-1 = test system: CAKI-1
ACHN = test system: ACHN
Malme-3M = test system: Malme-3M
M14 = test system: M14
KM12 = test system: KM12
SF-268 = test system: SF-268
HCT-15 = test system: HCT-15
OVCAR-4 = test system: OVCAR-4
A498 = test system: A498
RXF 393 = test system: RXF 393
HT-29 = test system: HT-29
SF-539 = test system: SF-539
SK-MEL-5 = test system: SK-MEL-5
LXFL 529 = test system: LXFL 529
SNB-78 = test system: SNB-78
UACC-62 = test system: UACC-62
DLD-1 = test system: DLD-1
KM-20L2 = test system: KM-20L2
HOP-18 = test system: HOP-18
DMS-114 = test system: DMS-114
SNB-75 = test system: SNB-75
A549 = test system: A549
OVCAR-5 = test system: OVCAR-5
SN12C = test system: SN12C
OVCAR-8 = test system: OVCAR-8
DMS-273 = test system: DMS-273
OVCAR-3 = test system: OVCAR-3
RXF 631 = test system: RXF 631
UACC-257 = test system: UACC-257
HOP-92 = test system: HOP-92
CCRF-CEM = test system: CCRF-CEM
LOX IMVI = test system: LOX IMVI
SK-MEL-28 = test system: SK-MEL-28
SK-OV-3 = test system: SK-OV-3
SK-MEL-2 = test system: SK-MEL-2
NCI-H460 = test system: NCI-H460
SW-620 = test system: SW-620
K562 = test system: K562
U-251 = test system: U-251
MOLT-4 = test system: MOLT-4
M19-MEL = test system: M19-MEL
TK-10 = test system: TK-10
NCI-H23 = test system: NCI-H23
HL-60 = test system: HL-60
IGROV-1 = test system: IGROV-1
EKVX = test system: EKVX
NCI-H522 = test system: NCI-H522
HCT-116 = test system: HCT-116
COLO 205 = test system: COLO 205
HOP-62 = test system: HOP-62
UO-31 = test system: UO-31
SNB-19 = test system: SNB-19
RPMI-8226 = test system: RPMI-8226
786-0 = test system: 786-0
SF-295 = test system: SF-295
MDA-MB-435 = test system: MDA-MB-435
NCI-H226 = test system: NCI-H226
SR = test system: SR
NCI/ADR-RES = test system: NCI/ADR-RES
MDA-N = test system: MDA-N
XF498 = test system: XF498
MDA-MB-231 = test system: MDA-MB-231
DU-145 = test system: DU-145
T47D = test system: T47D
BT-549 = test system: BT-549
MCF7 = test system: MCF7
PC-3 = test system: PC-3

COC(=O)c1nc(NC#N)nc(O)c1C
GI50 (HCC 2998): > 100 µM (inactive)
GI50 (CAKI-1): > 77.3 µM (inactive)
GI50 (ACHN): > 73.6 µM (inactive)
GI50 (Malme-3M): > 100 µM (inactive)
GI50 (M14): > 100 µM (inactive)
GI50 (KM12): > 100 µM (inactive)
GI50 (SF-268): > 78.9 µM (inactive)
GI50 (HCT-15): > 87.3 µM
GI50 (OVCAR-4): > 100 µM (inactive)
GI50 (A498): > 100 µM (inactive)
GI50 (RXF 393): > 100 µM (inactive)
GI50 (HT-29): > 100 µM (inactive)
GI50 (SF-539): > 55.8 µM (inactive)
GI50 (SK-MEL-5): > 100 µM (inactive)
GI50 (LXFL 529): > 64.9 µM (inactive)
GI50 (SNB-78): > 60.5 µM (inactive)
GI50 (UACC-62): > 61.1 µM (inactive)
GI50 (DLD-1): > 100 µM (inactive)
GI50 (KM-20L2): > 100 µM (inactive)
GI50 (HOP-18): > 100 µM (inactive)
GI50 (DMS-114): > 100 µM (inactive)
GI50 (SNB-75): > 53.3 µM (inactive)
GI50 (A549): > 89.5 µM (inactive)
GI50 (OVCAR-5): > 100 µM (inactive)
GI50 (SN12C): > 100 µM (inactive)
GI50 (OVCAR-8): > 100 µM (inactive)
GI50 (DMS-273): > 69.3 µM (inactive)
GI50 (OVCAR-3): > 100 µM (inactive)
GI50 (RXF 631): > 100 µM (inactive)
GI50 (UACC-257): > 100 µM (inactive)
GI50 (HOP-92): 50.2 µM (inactive)
GI50 (CCRF-CEM): 78 µM (inactive)
GI50 (LOX IMVI): > 100 µM (inactive)
GI50 (SK-MEL-28): > 100 µM (inactive)
GI50 (SK-OV-3): > 100 µM (inactive)
GI50 (SK-MEL-2): > 100 µM (inactive)
GI50 (NCI-H460): > 100 µM (inactive)
GI50 (SW-620): > 100 µM (inactive)
GI50 (K562): 34.9 µM (inactive)
GI50 (U-251): > 85.7 µM (inactive)
GI50 (MOLT-4): > 100 µM (inactive)
GI50 (M19-MEL): > 100 µM (inactive)
GI50 (TK-10): > 100 µM (inactive)
GI50 (NCI-H23): > 78.7 µM (inactive)
GI50 (HL-60): > 100 µM (inactive)
GI50 (IGROV-1): > 72.9 µM (inactive)
GI50 (EKVX): > 100 µM (inactive)
GI50 (NCI-H522): > 80.4 µM (inactive)
GI50 (HCT-116): > 61.1 µM (inactive)
GI50 (COLO 205): > 100 µM (inactive)
GI50 (HOP-62): > 100 µM (inactive)
GI50 (UO-31): > 51.8 µM (inactive)
GI50 (SNB-19): > 67.9 µM (inactive)
GI50 (RPMI-8226): 98.9 µM (inactive)
GI50 (786-0): > 100 µM (inactive)
GI50 (SF-295): > 100 µM (inactive)

C[C@]12CC[C@@H]3c4ccc(O)cc4CC[C@H]3[C@@H]1CC[C@@H]2OC(=O)CCC1CCCC1 [ESTRADIOL CYPIONATE]
GI50 (HCC 2998): 19.8 µM (inactive)
GI50 (CAKI-1): 19.1 µM (inactive)
GI50 (MDA-MB-435): 10 µM (inactive)
GI50 (ACHN): 23.8 µM (inactive)
GI50 (Malme-3M): 26.9 µM (inactive)
GI50 (NCI-H226): 19.1 µM (inactive)
GI50 (M14): 20.1 µM (inactive)
GI50 (KM12): 26.8 µM (inactive)
GI50 (SF-268): 21.8 µM (inactive)
GI50 (HCT-15): 16.2 µM
GI50 (OVCAR-4): 17.5 µM (inactive)
GI50 (A498): 20.3 µM (inactive)
GI50 (RXF 393): 10.4 µM (inactive)
GI50 (HT-29): 17.9 µM (inactive)
GI50 (SR): 17.8 µM (inactive)
GI50 (NCI/ADR-RES): 16.5 µM (inactive)
GI50 (SF-539): 18.8 µM (inactive)
GI50 (SK-MEL-5): 17.5 µM (inactive)
GI50 (LXFL 529): 17.5 µM (inactive)
GI50 (SNB-78): 56.9 µM (inactive)
GI50 (UACC-62): 14.4 µM (inactive)
GI50 (DLD-1): 33 µM (inactive)
GI50 (KM-20L2): 17.7 µM (inactive)
GI50 (HOP-18): 20.3 µM (inactive)
GI50 (MDA-N): 6.85 µM (inactive)
GI50 (DMS-114): 30.8 µM (inactive)
GI50 (XF498): 18.9 µM (inactive)
GI50 (A549): 17.8 µM (inactive)
GI50 (OVCAR-5): 26.2 µM (inactive)
GI50 (SN12C): 16.7 µM (inactive)
GI50 (MDA-MB-231): 17.5 µM (inactive)
GI50 (OVCAR-8): 16.7 µM (inactive)
GI50 (DMS-273): 14.3 µM (inactive)
GI50 (DU-145): 13.7 µM (inactive)
GI50 (OVCAR-3): 16.4 µM (inactive)
GI50 (T47D): 14.2 µM (inactive)
GI50 (UACC-257): 35 µM (inactive)
GI50 (HOP-92): 23.1 µM (inactive)
GI50 (CCRF-CEM): 17.8 µM (inactive)
GI50 (LOX IMVI): 18 µM (inactive)
GI50 (SK-MEL-28): 18.2 µM (inactive)
GI50 (SK-OV-3): 19.4 µM (inactive)
GI50 (SK-MEL-2): 23.2 µM (inactive)
GI50 (NCI-H460): 18.7 µM (inactive)
GI50 (SW-620): 20.9 µM (inactive)
GI50 (K562): 17.2 µM (inactive)
GI50 (U-251): 18.7 µM (inactive)
GI50 (MOLT-4): 17.8 µM (inactive)
GI50 (M19-MEL): 27.4 µM (inactive)
GI50 (BT-549): 17.7 µM (inactive)
GI50 (TK-10): 23.4 µM (inactive)
GI50 (NCI-H23): 17.7 µM (inactive)
GI50 (MCF7): 17.1 µM (inactive)
GI50 (PC-3): 16.6 µM (inactive)
GI50 (HL-60): 17.8 µM (inactive)
GI50 (IGROV-1): 17.6 µM (inactive)
GI50 (EKVX): 7.45 µM (inactive)
GI50 (NCI-H522): 17.1 µM (inactive)
GI50 (HCT-116): 17.3 µM (inactive)
GI50 (COLO 205): 19.1 µM (inactive)
GI50 (HOP-62): 18.8 µM (inactive)
GI50 (UO-31): 18.4 µM (inactive)
GI50 (SNB-19): 16.9 µM (inactive)
GI50 (RPMI-8226): 18.5 µM (inactive)
GI50 (786-0): 16.3 µM (inactive)
GI50 (SF-295): 16.7 µM (inactive)
